Earlier results on one molecule are cited in patent publication US20050147578A1, “Topical cosmetic composition having a natural plant active ingredient and method of using same” (Avon Products, Inc., priority 2001, published 2005).

For this series, the system named is Heat shock 70 protein.

With `O=[As]O` [Sodium arsenite, sodium arsenite], the “production of heat shock protein (known effect of positive control)” value is reported as “stimulate the production of heat shock protein”.
